Consider 14 compounds from patent US7202239B2, “Cyclohexylphenyl carboxamides tocolytic oxytocin receptor antagonists” (Wyeth, priority 2001, dated 2007).

Series [1] deals with human V2 vasopressin receptor subtype (Homo sapiens, UniProt P30518). Description: Vasopressin binding in CHO cell membranes expressing human vasopressin V2 subtype receptors. The conditions noted are these: [3H]arginine vasopressin; for inhibition at 0.1 µM: 100 nM; for IC50: value in parentheses. An excerpt:
Vasopressin Binding in Chinese Hamster Ovary Cell Membranes Expressing Human Vasopressin V2 Subtype Receptors
Chinese Hamster Ovary (CHO) cells stably transfected with the human V2 subtype receptors were obtained from M. Thibonnier, Case Western Reserve University School of Medicine, Cleveland, Ohio.
A. Passaging and Amplification of Cells:
CHO cells transfected with the human vasopressin V2 subtype receptors obtained from M. Thibonnier (pZeoSV vector) are allowed to grow to confluency (approx. >90%) in T-150 flasks under sterile conditions, in a cell culture medium of F-12 Nutrient Mixture (HAM) with L-glutamine (Gibco Cat. # 11765-054) containing 15 mM HEPES (Gibco Cat. # 15630-080), 1% antibiotic/antimycotic (add 5 mL 100×, Gibco Cat. # 15240-062 per 500 mL F-12), 250 μg/mL Zeocin (add 1.25 mL of 100 mg/mL Invitrogen R-250-01 per 500 mL F-12) and 10% Fetal Bovine Serum (Qualified, heat inactivated, Gibco Cat. # 16140-063). The medium is removed by aspiration and the cells washed with 10 mL of Hank's Balanced Salt solution (Gibco Cat. # 14175-095). The salt solution is removed by aspiration and the cells trypsinized with 5 mL of trypsin-EDTA (0.05% trypsin, 0.53 mM EDTA-4Na, Gibco Cat. # 25300-070) for 1 min. The trypsin is removed by aspiration and the cells dislodged by tapping. Cell Culture medium (e.g. 30 mL for 1:30 split) is immediately added and mixed well to inactivate trypsin. 1 mL of detached cells is added to new culture flasks containing fresh Cell Culture medium (e.g. into 25 mL per T-150 flask), and mixed gently. The cells are incubated at 37° C. in 5% CO2. The medium is changed at 3 to 4 day interval (or as appropriate). The cells grow to confluency (approx. >75%–95%) within 7–8 days. All steps are done under sterile conditions. B. Membrane Preparation: The cells are washed twice gently with Hank's Balanced Salt solution (e.g. use 10 mL per T-150 flask). The excess solution is removed and the cells bathed for 15–30 min. in an enzyme-free Cell Dissociation Buffer (e.g. use 8 mL Hank's Based, Gibco Cat. # 13150-016 per T-150 flask) until cells are loosened. The contents are transferred to centrifuge tubes (50 mL) kept in an ice bath. All subsequent steps are done at 4° C. The tubes are centrifuged at 300× g for 15 min (1380 rpm on SORVAL, Model RT6000D, using the rotor for 50 mL tubes). The supernatant is discarded and the cells suspended in homogeneizing buffer(10 mM Tris-HCl containing 0.25 M sucrose and 1 mM EDTA, pH 7.4) ensuring that the volume of the buffer is about ten times the volume of the cell pellet. The cells are pooled into a centrifuge tube (50 mL) and homogenized with a Polytron at setting 6 for 10 sec. The homogenate is transferred into a Potter-Elvjehm homogeneizer and homogenized with 3 strokes. The homogenate is centrifuged at 1500×g for 60 min at 4° C. (3100 rpm using SORVAL, model RT6000D, using the rotor for 50 mL tubes). The pellet is discarded. The supernatant is centrifuged at 100,000×g for 60 min. at 4° C. (Beckman L8-80M ultracentrifuge; spin at 37,500 rpm with rotor type 70 Ti for 50 mL tubes; 38,000 rpm with type 80Ti for 15 mL tubes; or 35,800 rpm with rotor type 45Ti). The supernantant is discarded and the pellet suspended in 3 to 4 mL of Tris buffer (50 mM TRIS-HCl, pH 7.4). The protein content is estimated by the Bradford or Lowry method. The volume of the membrane suspension is adjusted with the membrane buffer (50 mM Tris-HCl containing 0.1% BSA and 0.1 mM PMSF) to give 3.0 mg/mL (or as appropriate) of protein. The membranes are aliquoted and stored at −70° C. C. Radioligand Binding Assay: In wells of a 96-well format microtiter plate, is added 90, 110 or 130 μL (to make up a final volume of 200 μL) of assay buffer containing 50 mM of Tris-HCl (pH 7.4), […], 1 mg % aprotinin, 1 mg % leupeptin, 2 mg % 1,10-phenanthroline, 10 mg % trypsin inhibitor, and 0.1 mM PMSF. The inhibitors are added on the day of the experiment. […]

Sequence of human V2 vasopressin receptor subtype (P30518 whole entry): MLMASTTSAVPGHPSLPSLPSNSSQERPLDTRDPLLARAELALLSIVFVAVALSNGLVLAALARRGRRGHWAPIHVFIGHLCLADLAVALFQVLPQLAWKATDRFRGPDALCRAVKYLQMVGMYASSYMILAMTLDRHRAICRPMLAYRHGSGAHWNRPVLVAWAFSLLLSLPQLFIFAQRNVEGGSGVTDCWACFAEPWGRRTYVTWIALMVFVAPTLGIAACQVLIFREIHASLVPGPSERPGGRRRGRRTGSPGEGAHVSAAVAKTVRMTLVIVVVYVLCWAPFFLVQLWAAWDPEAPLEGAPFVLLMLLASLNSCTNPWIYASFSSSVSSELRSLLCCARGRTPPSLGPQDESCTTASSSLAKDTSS

The inhibition is the drop in the measured response relative to a control, in per cent. By melting point is commonly meant the temperature of the solid-liquid transition. Take `COC(=O)c1ccc2c(c1)N(C(=O)c1ccc(C3CCCCC3)cc1)Cc1ccc(C(=O)N3CCN(C)CC3)n1C2.Cl` [Example 1, Methyl 10-(4-cyclohexylbenzoyl)-3-[(4-methyl-1-piperazinyl)carbonyl]-10,11-dihydro-5H-pyrrolo[2,1-c][1,4]benzodiazepine-8-carboxylate hydrochloride salt]: the melting point was 203 °C (dec.). In series [1], the inhibition at 0.1 µM was 3%.

Consider `CN1CCN(C(=O)c2ccc3n2Cc2ccc(C(=O)O)cc2N(C(=O)c2ccc(C4CCCCC4)cc2)C3)CC1` [Example 3, 10-(4-Cyclohexyl-benzoyl)-3-[(4-methyl-1-piperazinyl)carbonyl]-10,11-dihydro-5H-pyrrolo[2,1-c][1,4]benzodiazepine-8-carboxylic acid], for which the melting point was in the range of 195 to 210 °C. The inhibition at 0.1 µM in series [1] is -4%.

Compound `CC(C)(C)c1ccc(C(=O)c2ccc3n2Cc2ccccc2N(C(=O)c2ccc(C4CCCCC4)cc2)C3)cc1` [Example 5, [4-(tert-Butyl)phenyl][10-(4-cyclohexyl-benzoyl)-10,11-dihydro-5H-pyrrolo[2,1-c][1,4]benzodiazepin-3-yl]methanone] came in with a melting point of 143 to 145 °C. Moreover, the inhibition at 0.1 µM in series [1] came to 2%.

Regarding `O=C(c1ccc(C2CCCCC2)cc1)N1Cc2ccc(C(=O)C(Cl)(Cl)Cl)n2Cc2ccccc21` [Example 7, 2,2,2-Trichloro-1-[10-(4-cyclohexyl-benzoyl)-10,11-dihydro-5H-pyrrolo[2,1-c][1,4]benzodiazepin-3-yl]-1-ethanone], the melting point was in the range of 172 to 174 °C. The inhibition at 0.1 µM in series [1] amounted to 10%.

What is called IC50 is the concentration that inhibits the measured activity by half. Compound `CC(=NNC(=O)c1ccc2n1Cc1ccccc1N(C(=O)c1ccc(C3CCCCC3)cc1)C2)N(C)C` [Example 9, N′-{[10-(4-Cyclohexyl-benzoyl)-10,11-dihydro-5H-pyrrolo[2,1-c][1,4]benzodiazepin-3-yl]carbonyl}-N,N-dimethylethanehydrazonamide] came in with a melting point of 164 to 175 °C. Further, the IC50 in series [1] is above 1000 nM.

`CN(C)C=NNC(=O)c1ccc2n1Cc1ccccc1N(C(=O)c1ccc(C3CCCCC3)cc1)C2` [Example 10, N′-{[10-(4-Cyclohexyl-benzoyl)-10,11-dihydro-5H-pyrrolo[2,1-c][1.4]benzodiazepin-3-yl]carbonyl}-N,N-dimethylhydrazonoformamide] returned a melting point of 167 to 190 °C. In addition, the 50% inhibitory concentration (IC50) in series [1] was 1160 nM.

The compound `NC(=O)c1ccc2n1Cc1ccccc1N(C(=O)c1ccc(C3CCCCC3)cc1)C2` [Example 16, 10-(4-Cyclohexyl-benzoyl)-10,11-dihydro-5H-pyrrolo[2,1-c][1,4]benzodiazepin-3-carboxamide] showed a melting point of 122 to 123 °C. In addition, the IC50 in series [1] was above 1000 nM.

`CN(C)/C=N/C(=O)c1ccc2n1Cc1ccccc1N(C(=O)c1ccc(C3CCCCC3)cc1)C2` [Example 17]: the melting point is 216 to 218 °C. Also, in series [1], the concentration for half-maximal inhibition (IC50) worked out at 477 nM.

The compound `C/C(=N\C(=O)c1ccc2n1Cc1ccccc1N(C(=O)c1ccc(C3CCCCC3)cc1)C2)N(C)C` [Example 18] yielded a melting point of 128 to 131 °C. Besides, in series [1], the IC50 is 294 nM.

Regarding `CN(C)NC(=O)c1ccc2n1Cc1ccccc1N(C(=O)c1ccc(C3CCCCC3)cc1)C2` [Example 19, 10-(4-Cyclohexyl-benzoyl)-N′-N′-dimethyl-10,11-dihydro-5H-pyrrolo[2,1-c][1,4]benzodiazepine-3-carbohydrazide], the melting point fell in the range of 182 to 183 °C. In series [1], the IC50 was above 1000 nM.

`CN(C)/C=C/C(=O)c1ccc2n1Cc1ccccc1N(C(=O)c1ccc(C3CCCCC3)cc1)C2` [Example 20, (E)-1-[10-(4-Cyclohexyl-benzoyl)-10,11-dihydro-5H-pyrrolo[2,1-c][1,4]benzodiazepin-3-yl]-3-(dimethylamino)-2-propen-1-one] returned a melting point of 237 to 240 °C. Moreover, the inhibition at 0.1 µM in series [1] is 11%.

Turning to `CN1CCN(C(=O)c2ccc3n2Cc2ccccc2N(C(=O)c2ccc(C4CCCCC4)cc2)C3)CC1` [Example 24, [10-(4-Cyclohexyl-benzoyl)-10,11-dihydro-5H-pyrrolo[2,1-c][1,4]benzodiazepin-3-yl](4-methyl-1-piperazinyl)-methanone], the melting point lay within 134 to 136 °C. Moreover, in series [1], the IC50 is above 1000 nM.

`Cc1ccccc1N1CCN(C(=O)c2ccc3n2Cc2ccccc2N(C(=O)c2ccc(C4CCCCC4)cc2)C3)CC1` [Example 27, [10-(4-Cyclohexyl-benzoyl)-10,11-dihydro-5H-pyrrolo[2,1-c][1,4]benzodiazepin-3-yl][4-(2-methylphenyl)-1-piperazinyl]-methanone] gave a melting point of 141 to 143 °C. Further, the inhibition at 0.1 µM in series [1] was 9%.

Regarding `CN1CCCN(C(=O)c2ccc3n2Cc2ccccc2N(C(=O)c2ccc(C4CCCCC4)cc2)C3)CC1` [Example 30, [10-(4-Cyclohexyl-benzoyl)-10,11-dihydro-5H-pyrrolo[2,1-c][1,4]benzodiazepin-3-yl](4-methyl-[1,4]-diazepan-1-yl)-methanone], the melting point fell in the range of 133 to 136 °C. For the same compound, in series [1], the inhibition at 0.1 µM worked out at 15%.
